The text below walks through data of PubChem BioAssay (NCI).

Structures are written as SMILES.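 Interpolation was linear, between the two tested concentrations surrounding the appropriate level; five concentrations were tested over 48 hours in 96-well plates. TGI: concentration producing complete growth inhibition.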

Some test systems named below: OVCAR-5 ovarian; HCT-15 colon; HOP-62 NSCLC; MOLT-4 leukemia; HL-60(TB) leukemia; T-47D breast; TK-10 renal; K-562 leukemia; HCT-116 colon; CAKI-1 renal.
Holding throughout (experiment): NCI tumour cell line growth inhibition, 48 h

As for `Cc1ccc(S(=O)(=O)NC(=O)NC(Cc2ccccc2)C(=O)O)cc1` (centres undefined), the TGI in the experiment on OVCAR-5 ovarian, in the experiment with HCT-15 colon, with HOP-62 NSCLC, in the experiment with MOLT-4 leukemia, in the experiment with HL-60(TB) leukemia and in the experiment with T-47D breast was over 100 µM in each case. Moreover, the TGI in the experiment on TK-10 renal, with K-562 leukemia and in the experiment on HCT-116 colon was over 100 µM throughout.

Take `O=c1c(/C=C/c2c(O)ccc3ccccc23)nnc2sc(-c3cccc([N+](=O)[O-])c3)nn12`: the TGI is over 100 µM with OVCAR-5 ovarian; over 100 µM in the experiment on HCT-15 colon; over 100 µM in the experiment on HOP-62 NSCLC; 28.4 µM with MOLT-4 leukemia; 13.5 µM with HL-60(TB) leukemia; 89.3 µM in the experiment with TK-10 renal. In addition, the TGI with K-562 leukemia is over 100 µM; in the experiment on HCT-116 colon, 32.2 µM; with CAKI-1 renal, over 100 µM.

Regarding `CC(=O)N1CC(C)(C)c2c1cc(C)c(O)c2C`, the TGI in the experiment on OVCAR-5 ovarian, in the experiment on HCT-15 colon, in the experiment with HOP-62 NSCLC, in the experiment with MOLT-4 leukemia, in the experiment on HL-60(TB) leukemia and with T-47D breast was over 100 µM throughout. In addition, the TGI in the experiment with TK-10 renal, in the experiment with K-562 leukemia and in the experiment on HCT-116 colon was over 100 µM in each case.

As for `O=c1[nH]c2nccnc2c2c([N+](=O)[O-])cccc12`, the TGI in the experiment with OVCAR-5 ovarian is over 100 µM; in the experiment on HCT-15 colon, over 100 µM; in the experiment on HOP-62 NSCLC, over 100 µM; in the experiment with MOLT-4 leukemia it was over 100 µM; in the experiment with HL-60(TB) leukemia, over 100 µM; in the experiment on T-47D breast, 73.4 µM. Also, the TGI in the experiment with TK-10 renal, with K-562 leukemia and in the experiment on HCT-116 colon was over 100 µM each time.

Regarding `COC(=O)c1c(C)ccc2c(O)c3c(cc12)C(=O)c1c2c(cc(O)c1C3=O)C1(C)OC(C)(O2)C(O)C(N(C)C)C1O` (centres undefined), the TGI in the experiment on OVCAR-5 ovarian amounted to 7.19 µM; in the experiment on HOP-62 NSCLC it was 13.4 µM; in the experiment with MOLT-4 leukemia, 3.2 µM; with HL-60(TB) leukemia it was 15.4 µM; with TK-10 renal, 2.68 µM; in the experiment with HCT-116 colon it was 1.84 µM. The TGI in the experiment with CAKI-1 renal amounted to 6.32 µM.

Consider `N#CC(c1nc2ccccc2s1)c1nc(Cl)ncc1Br` (centres undefined), for which the TGI in the experiment on OVCAR-5 ovarian, in the experiment with HCT-15 colon, in the experiment with HOP-62 NSCLC, in the experiment with MOLT-4 leukemia, in the experiment with T-47D breast and in the experiment with TK-10 renal was over 100 µM in each case. Further, the results for the TGI with HCT-116 colon and with CAKI-1 renal were 69.8 µM and over 100 µM, respectively.

Regarding `CC(=O)c1cc2c(s1)C(=O)c1scc(C(C)=O)c1C2=O`, the TGI is 4.14 µM with OVCAR-5 ovarian; 1.07 µM with HCT-15 colon; 1.97 µM with HOP-62 NSCLC; 0.838 µM in the experiment on T-47D breast; 9.9 µM in the experiment with TK-10 renal; 3.54 µM with K-562 leukemia. The TGI with HCT-116 colon is 1.12 µM; in the experiment with CAKI-1 renal, 2.34 µM.

As for `CCOC(O)C(F)(F)F` (centres undefined), the TGI in the experiment with HCT-15 colon, in the experiment with MOLT-4 leukemia, in the experiment with HL-60(TB) leukemia, in the experiment with T-47D breast, with TK-10 renal and in the experiment with K-562 leukemia was over 100 µM in each case. The molecule also showed a TGI in the experiment on HCT-116 colon of over 100 µM.

As for `CSc1nc2c(c(=O)n1C)N=C(c1ccc(Cl)cc1)CC(c1ccccc1)N2` (centres undefined), the TGI was over 100 µM with OVCAR-5 ovarian; 71.4 µM in the experiment on HOP-62 NSCLC; 53.9 µM with MOLT-4 leukemia; 62.4 µM in the experiment with HL-60(TB) leukemia; 53.2 µM in the experiment with K-562 leukemia; over 100 µM in the experiment on HCT-116 colon. For the same molecule, the TGI in the experiment on CAKI-1 renal worked out at 46.4 µM.

Turning to `N#CCN1CCCCCc2ccccc21`, the TGI with OVCAR-5 ovarian, with HCT-15 colon, in the experiment with HOP-62 NSCLC, in the experiment with MOLT-4 leukemia, in the experiment with HL-60(TB) leukemia and with T-47D breast was over 100 µM throughout. Further, the TGI in the experiment with TK-10 renal, in the experiment with K-562 leukemia and with HCT-116 colon was over 100 µM throughout.

For the molecule `C\C=C/C=C/C=C/C(=O)O`, the TGI with OVCAR-5 ovarian, in the experiment with HCT-15 colon, in the experiment with HOP-62 NSCLC, with MOLT-4 leukemia, in the experiment with HL-60(TB) leukemia and in the experiment with K-562 leukemia was over 100 µM in each case. Besides, the TGI with HCT-116 colon and with CAKI-1 renal was over 100 µM in each case.

Take `O=c1[nH]c(=S)c2cc3c(=S)[nH]c(=O)n(CCC(c4ccccc4)(c4ccccc4)c4ccccc4)c3nc2n1CCC(c1ccccc1)(c1ccccc1)c1ccccc1`: the TGI in the experiment with OVCAR-5 ovarian is over 100 µM; in the experiment on HCT-15 colon, over 100 µM; in the experiment on HOP-62 NSCLC, over 100 µM; with MOLT-4 leukemia, 84.1 µM; in the experiment with T-47D breast, over 100 µM; in the experiment on TK-10 renal, over 100 µM. The TGI in the experiment with K-562 leukemia, with HCT-116 colon and in the experiment on CAKI-1 renal was over 100 µM in each case.

On to `COc1ccc(OC)c(C(=O)/C=C/c2cc(O)c(O)cc2F)c1`, for which the TGI in the experiment on OVCAR-5 ovarian was 38.9 µM; in the experiment on HCT-15 colon it was 13.5 µM; in the experiment with HOP-62 NSCLC, 29.2 µM; in the experiment with T-47D breast, over 100 µM; with TK-10 renal, 21.6 µM; in the experiment on K-562 leukemia, over 27.8 µM. In addition, the TGI with HCT-116 colon is 11.5 µM; in the experiment with CAKI-1 renal, 27.6 µM.

With `CN1c2ccccc2C(=O)NC12CCN(Cc1ccccc1)CC2`, the TGI in the experiment with OVCAR-5 ovarian, with HCT-15 colon, in the experiment with HOP-62 NSCLC, in the experiment with MOLT-4 leukemia, in the experiment on HL-60(TB) leukemia and in the experiment on T-47D breast was over 100 µM in each case. Besides, the TGI in the experiment on TK-10 renal and with HCT-116 colon was over 100 µM each time.

For the molecule `O=C(Nc1ccc(Cl)cc1)c1cccc([N+](=O)[O-])c1O`, the TGI in the experiment with OVCAR-5 ovarian was over 100 µM; in the experiment on HCT-15 colon it was over 88.3 µM; with HOP-62 NSCLC it was 9.13 µM; with MOLT-4 leukemia, 10.1 µM; in the experiment on HL-60(TB) leukemia it was 7.18 µM; in the experiment with TK-10 renal, over 44.4 µM. The TGI in the experiment on K-562 leukemia turned out to be 24.2 µM; with HCT-116 colon, 20 µM; with CAKI-1 renal it was 17.1 µM.
